Data reported in patent US6528528B2 (Warner-Lambert Company, priority 1997, dated 2003).

Legend:
[1] = target: T1, rabbit reticulocyte 15-LO (Oryctolagus cuniculus, UniProt P12530); experiment: Rabbit Reticulocyte 15-LO Assay (h15LO); type: biochemical; details: for IC50: 2U rabbit reticulocyte 15-LO, 174 μM linoleic acid, 15 minutes at 4° C.; for h15LO, value given as bare %: concentration not given
T1 construct: Fifteen-lipoxygenase was obtained from phenylhydrazine-treated rabbits and purified per the method of Rapoport; from tissue; host or cells: reticulocytes of phenylhydrazine-treated rabbits
T1 sequence (P12530 1-663): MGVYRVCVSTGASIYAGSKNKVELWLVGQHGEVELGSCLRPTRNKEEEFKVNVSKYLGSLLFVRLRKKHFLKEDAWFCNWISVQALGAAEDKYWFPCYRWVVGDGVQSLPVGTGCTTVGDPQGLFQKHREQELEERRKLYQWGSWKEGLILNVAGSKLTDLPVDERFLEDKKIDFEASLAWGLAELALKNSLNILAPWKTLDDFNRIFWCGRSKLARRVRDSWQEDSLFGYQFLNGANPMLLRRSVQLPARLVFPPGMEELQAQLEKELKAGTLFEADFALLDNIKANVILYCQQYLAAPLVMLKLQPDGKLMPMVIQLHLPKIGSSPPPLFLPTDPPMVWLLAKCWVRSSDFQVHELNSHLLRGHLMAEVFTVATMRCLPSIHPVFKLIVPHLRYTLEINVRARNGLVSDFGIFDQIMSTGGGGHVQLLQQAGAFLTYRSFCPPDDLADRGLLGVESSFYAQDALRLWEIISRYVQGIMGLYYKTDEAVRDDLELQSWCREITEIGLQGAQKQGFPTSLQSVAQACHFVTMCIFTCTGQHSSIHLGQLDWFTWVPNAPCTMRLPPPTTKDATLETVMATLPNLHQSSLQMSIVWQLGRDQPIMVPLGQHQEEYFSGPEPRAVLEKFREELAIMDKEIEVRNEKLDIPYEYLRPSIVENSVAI
How it was run: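 Linoleic acid oxidation to 13-HPODE measured at 4° C. over 15 minutes, using 174 μM substrate and 2U enzyme purified from phenylhydrazine-treated rabbits in PBS/0.2% Na cholate. Product peak areas calibrated with authentic 13-HODE; inhibition expressed versus maximal reaction.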

[2] = test system: monocytes; experiment: Monocyte Recruitment Assay (chemotaxis of monocytes); type: cell-based; details: Table 3; for EC50: Monocyte, read-out: Monocyte Recruitment Assay ED50
Method: Monocyte Recruitment Assay
The recruitment or chemotaxis of monocytes was assayed by methods well known to those skilled in the art. In particular, the method set forth in J. Clin. Invest., 1988;82:1853-1863, which is hereby incorporated by reference, was used.

[3] = test system: Rabbits fed a 0.25% cholesterol, 3% peanut oil, 3% coconut oil diet; experiment: In vivo tests: aortic atherosclerotic lesions in rabbits fed a cholesterol diet; details: 10 mg/kg as diet admix, 12 weeks
Method: The entire descending thoracic aorta was assayed for its cholesteryl ester (CE), free cholesterol phospholipid content. The lipids were extracted in chloroform:methanol (2:1) by the procedure of Folch, et al. (Folch J., Lees M., Sloane-Stanley G. H. A simple method for the isolation and purification of total lipids from animal tissue, J. Biol. Chem., 1957;226:497-509) and 300-500 μL of an internal standard, i.e., 200 mg/ml solution of 4-hydroxy-cholesterol in ethyl acetate:acetone (2:1), was added to the extracts of the thoracic aortic samples. After extraction, the organic phase was dried under nitrogen and redissolved in isooctane/tetrahydro-furan (97:3). The lipid content and composition of the thoracic aorta were measured using an HPLC method.
For histologic evaluation of the aortic arch lesions and for quantification of aortic arch cross-sectional lesion area, a 1 cm segment of the ascending aorta distal to the aortic valves was fixed in 10% neutral buffered formalin for 24 hours. The vessels were dehydrated, cleared in xylene, and infiltrated with molten paraffin (<60° C.) using a Tissue Tek VIP autoprocessor (Miles Scientific, Elkhart, Ind.). The tissue segments were embedded in paraffin and sectioned at 5 μm with a Reichert-Jung microtome (Baxter, McGraw Park, Ill.). In order to obtain a thorough representation of the histologic appearance of the aortic arch lesions, 3 ribbons of 20 sections each were cut. Each ribbon of sections was spaced approximately 100 μm apart. Three pairs of sections, i.e., 1 pair from each ribbon, were affixed to cleaned 3-aminopropyltriethoxy-silane coated glass slides and stored until stained. The general histologic character was evaluated in Verhoeff's elastica stained sections.
The gross extent of atherosclerosis within the aortic arch was measured. In addition, sections of the aortic arch, a site of hypercholesterolemia-induced lesions, stained using the Verhoeff's elastica procedure were used for quantification of lesion cross-sectional. The internal elastic lamina (IEL) was identified as a blue-black ring and images of that region were collected using a digital camera. The area within the IEL was quantified using the Image Pro Plus image analysis software. The area of the lumen of the aortic arch was also quantified in a similar fashion. Lesion area was defined as the difference between the area circumscribed by the internal elastic lamina and the lumen area.
Aortic arch lesion extent was also measured. The area distal to the 1 cm segment taken for histologic evaluation to the first intercostal ostia was removed from the animal, opened longitudinally and images of the surface of the vessel was collected using a digital camera. The lesions were identified as raised, opaque areas and their area was determined using the Image Pro Plus image analysis software. The area of the entire aortic arch was also determined. The percentage of aortic arch covered by atherosclerotic lesions was calculated.

SMILES | IC50 ([1]; Table 2) [nM] | melting point [°C] | other results
COc1ccc(C(=O)Nc2ccccc2)cc1NC(=S)NC(=O)c1ccccc1 [Example 67, 4-Methoxy-N-phenyl-3-(3-benzoyl-thioureido)-benzamide] | 10000 | – | EC50 [2]: 24100 nM
COc1ccc(C(=O)Nc2ccccc2)cc1NC(=S)Nc1ccc(Cl)cc1 [Example 65, 3-[3-(4-Chlorophenyl)-thioureido]-4-methoxy-N-phenyl-benzamide] | 42 | 179 to 180 | EC50 [2]: 22700 nM
COc1ccc(C(=O)Nc2ccccc2)cc1NC(=S)Nc1ccc(C)cc1 [Example 69, 4-Methoxy-N-phenyl-3-(-3-p-tolyl-thioureido)-benzamide] | 32 | – | Monocyte Recruitment Assay % @ 30 μM ([2]; @ 30 μM): 13% @ 30 μM
COc1ccc(C(=O)Nc2ccccc2)cc1Nc1cc(Cl)cc(Cl)c1 [Example 35, 3-(3,5-Dichloro-phenylamino)-4-methoxy-N-phenyl-benzamide] | 7 | – | EC50 [2]: 26300 nM
COc1ccc(C(=O)Nc2ccc(F)cc2)cc1NC(=S)Nc1cc(Cl)cc(Cl)c1 [Example 91, 3-[3-(3,5-Dichlorophenyl)-thioureido]-N-(4-fluorophenyl)-4-methoxy-benzamide] | 8 | 175 to 178 | Aortic Arch Cross-Sectional Lesion Area (% Δ from Control) [3]: −11 % Δ from Control; Aortic Arch Lesion Extent (% Δ from Control) [3]: −12 % Δ from Control; Aortic Cholesteryl Ester Content (% Δ from Control) [3]: +50 % Δ from Control
COc1ccc(C(=O)Nc2ccccc2)cc1NC(=S)Nc1ccc(C(=O)O)cc1 [Example 75, 4-[3-(2-Methoxy-5-phenylcarbamoyl-phenyl)-thioureido]-benzoic acid] | 104 | 201 to 202 | Aortic Arch Cross-Sectional Lesion Area (% Δ from Control) [3]: −90 % Δ from Control; Aortic Arch Lesion Extent (% Δ from Control) [3]: −49 % Δ from Control; Aortic Cholesteryl Ester Content (% Δ from Control) [3]: −28 % Δ from Control
COc1ccc(C(=O)Nc2ccc(F)cc2)cc1Nc1cccc(C(F)(F)F)c1 [Example 40, 3-(3-Trifluoromethyl-phenylamino)-4-methoxy-N-(4-fluorophenyl)-benzamide] | 17 | 163 to 164 | Aortic Arch Cross-Sectional Lesion Area (% Δ from Control) [3]: −6 % Δ from Control; Aortic Arch Lesion Extent (% Δ from Control) [3]: +35 % Δ from Control; Aortic Cholesteryl Ester Content (% Δ from Control) [3]: +5 % Δ from Control
COc1ccc(C(=O)Nc2ccc(Cl)c(Cl)c2)cc1N [Example 4, 3-Amino-4-methoxy-N-(3,4-dichlorophenyl)-benzamide] | – | 179 to 182 | IC50 ([1]; Table 1): 10 nM; Aortic Arch Cross-Sectional Lesion Area (% Δ from Control) [3]: −94 % Δ from Control; Aortic Arch Lesion Extent (% Δ from Control) [3]: +20 % Δ from Control; Aortic Cholesteryl Ester Content (% Δ from Control) [3]: −7 % Δ from Control
COc1ccc(C(=O)Nc2ccccc2)cc1NCc1cc(Cl)cc(Cl)c1 [Example 51, 3-(3,5-Dichloro-benzylamino)-4-methoxy-N-phenyl-benzamide] | – | – | inhibition at 10 µM ([1]; 0.25 h, Table 2, @ 10 μM, read-out: h15LO % @ 10 μM): 69%; EC50 [2]: 20000 nM
COc1ccc(C(=O)Nc2ccccc2)cc1NS(=O)(=O)c1ccc(NC(C)=O)cc1 [Example 139, 3-(4-Acetylamino-benzenesulfonylamino)-4-methoxy-N-phenyl-benzamide] | 104 | 250 to 251 | –
COc1ccc(C(=O)Nc2ccccc2)cc1NC(=O)CC(=O)OCc1ccccc1 [Example 252, (2-Methoxy-5-phenylcarbamoyl-phenylcarbamoyl)-acetic acid phenylmethyl Ester] | – | 168 to 171 | h15LO, value given as bare % ([1]; Table 2): 43%
COc1ccc(C(=O)Nc2ccccc2)cc1NC(=S)Nc1cccc(C(=O)O)c1 [Example 113, 3-[3-(2-Methoxy-5-phenylcarbamoyl-phenyl)-thioureido]-benzoic Acid] | 52 | 196 to 197 | –
COc1ccc(C(=O)Nc2ccccc2)cc1NC(=NC#N)Nc1cc(Cl)cc(Cl)c1 [Example 256, 3-[[(Cyanoimino)[(3,5-dichlorophenyl)amino]methyl]amino]-4-methoxy-N-phenyl-benzamide] | – | 225 to 227 | h15LO, value given as bare % ([1]; Table 2): 45%
COc1ccc(C(=O)Nc2ccccc2)cc1NC(=S)Nc1cc(C(F)(F)F)cc(C(F)(F)F)c1 [Example 89, 3-[3-(3,5-Bis-trifluoromethylphenyl)-thioureido]-4-methoxy-N-phenyl-benzamide] | 35 | 192 to 193 | –
COc1ccc(C(=O)Nc2ccccc2)cc1NS(=O)(=O)Cc1ccccc1 [Example 135, 3-Phenylmethanesulfonylamino-4-methoxy-N-phenyl-benzamide] | 63 | 216 | –
COc1ccc(C(=O)Nc2ccccc2)cc1NS(=O)(=O)c1cc(Br)c(Br)s1 [Example 126, 3-(4,5-Dibromothiophene-2-sulfonylamino)-4-methoxy-N-phenyl-benzamide] | 48 | 205 to 210 | –
CCc1ccc(C(=O)Nc2ccccc2)cc1NC(=S)Nc1cccc(C(F)(F)F)c1 [Example 110, 4-Ethyl-N-phenyl-3-[3-(3-trifluoromethylphenyl)-thioureido]-benzamide] | 290 | 166 to 167 | –
COc1ccc(C(=O)Nc2ccc(Cl)c(Cl)c2)cc1NS(C)(=O)=O [Example 119, 3-Methanesulfonylamino-4-methoxy-N-(3,4-dichlorophenyl)-benzamide] | 90 | 226 to 228 | Aortic Arch Cross-Sectional Lesion Area (% Δ from Control) [3]: −50 % Δ from Control; Aortic Arch Lesion Extent (% Δ from Control) [3]: +46 % Δ from Control; Aortic Cholesteryl Ester Content (% Δ from Control) [3]: +46 % Δ from Control
COc1ccc(C(=O)Nc2ccc(Cl)c(Cl)c2)cc1NC(=S)Nc1cc(Cl)cc(Cl)c1 [Example 97, N-(3,4-Dichlorophenyl)-3-[3-(3,5-dichlorophenyl)-thioureido]-4-methoxy-benzamide] | 19 | 189 to 191 | –
COc1ccc(C(=O)Nc2ccccc2)cc1NC(=S)Nc1cc(C)cc(C)c1 [Example 99, 3-[3-(3,5-Dimethylphenyl)-thioureido]-4-methoxy-N-phenyl-benzamide] | 11 | 203 to 205 | –
CCCCCCCCCCCCS(=O)(=O)Nc1cc(C(=O)Nc2ccc(Cl)c(Cl)c2)ccc1OC [Example 194, 3-(Dodecane-1-sulfonylamino)-4-methoxy-N-(3,4-dichloro-phenyl)-benzamide] | – | 151 to 152 | h15LO, value given as bare % ([1]; Table 2): 93.61%
COc1ccc(NC(=O)c2ccc(O)c(Nc3cc(Cl)cc(Cl)c3)c2)cc1 [Example 57, 3-(3,5-Dichloro-phenylamino)-4-hydroxy-N-(4-methoxyphenyl)-benzamide] | 165 | 186 to 187 | –
